pEC50, pIC50: −log10 of the molar value. Where a SMILES comes first, the peptide text is derived from it. The star is where a group is joined. Propanoyl(3-(4-F-phenyl)) = O=C(CCc1ccc(F)cc1)*; Boc = CC(C)(C)OC(=O)*

One may read the pEC50 as the EC50 on a negative log10 scale, so that one unit is a factor of ten. One may read the pIC50 as the negative decadic logarithm of the IC50, by convention in mol/L. Read a high pIC50 as a low IC50.

The species entered for test [1] is Cavia porcellus. Put plainly: Stimulation of amylase release in guinea pig pancreas. Type of test: functional.
The target of test [2] is T1, Cholecystokinin receptor type A (Cavia porcellus, UniProt Q63931).
T1 sequence (Q63931 whole entry): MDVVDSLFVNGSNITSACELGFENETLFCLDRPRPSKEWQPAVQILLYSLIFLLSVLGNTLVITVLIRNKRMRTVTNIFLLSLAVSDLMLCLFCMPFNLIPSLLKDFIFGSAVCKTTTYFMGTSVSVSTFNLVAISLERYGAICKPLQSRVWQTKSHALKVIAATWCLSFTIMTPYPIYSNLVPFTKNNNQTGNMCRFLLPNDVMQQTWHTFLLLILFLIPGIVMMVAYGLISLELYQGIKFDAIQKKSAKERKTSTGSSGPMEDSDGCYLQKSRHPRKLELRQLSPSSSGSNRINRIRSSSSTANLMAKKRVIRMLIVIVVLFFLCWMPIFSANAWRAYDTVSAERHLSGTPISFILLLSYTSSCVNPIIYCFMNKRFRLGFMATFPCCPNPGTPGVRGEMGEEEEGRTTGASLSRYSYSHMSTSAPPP
Put plainly: Inhibition of specific binding of [125I]BH-CCK-8 in guinea pig pancreas.

For test [3], the species on record is Cavia porcellus. Put plainly: Hydrolysis of phosphoinositide (PI) relative to maximal response elicited by CCK-8 in guinea pig pancreas. Type of test: functional.

`CC(C)(C)OC(=O)N[C@@H](Cc1c[nH]c2ccccc12)C(=O)N[C@@H](CCCCNC(=O)CCc1ccc(F)cc1)C(=O)N[C@@H](CC(=O)O)C(=O)N[C@@H](Cc1ccccc1)C(N)=O` (Boc-WK(Propanoyl(3-(4-F-phenyl)))DF-NH2) showed a pEC50 in the test filed under Cavia porcellus [1] of 6.35. Further, the pIC50 in test [2] was 6.60. Further, the Max in the test listed under Cavia porcellus [3] turned out to be 68%.
